# Laboratory results as given in ChEMBL document CHEMBL4840358, “Discovery of Modified Amidate (ProTide) Prodrugs of Tenofovir with Enhanced Antiviral Properties” (J Med Chem, 2021).
# What was measured:
# Hepatitis B virus = assay: Antiviral activity against HBV infected in human HepG2-hNTCP cells assessed as reduction in HBV DNA incubated for day 1 followed by compound washout and fresh compound addition on following day and day 3, 6 and 10 measured on day 14 post infection by qPCR analysis; assay type: functional, organism-based
# [1] = Cytotoxicity against human HepG2-hNTCP cells incubated for 3 days by XTT assay; assay type: cell-based; details: time 3 day
# [2] = system: Human immunodeficiency virus 1; assay: Antiviral activity against HIV-1 infected in MT4 cells assessed as reduction in virus-induced cytopathic effect preincubated for 1 hr followed by viral infection and measured after 5 days by XTT assay; assay type: functional, organism-based; details: Human immunodeficiency virus 1, MT4
# [3] = Cytotoxicity against in human MT4 cells after 5 days by XTT assay; assay type: cell-based; details: time 5 day
SMILES,EC50 (Hepatitis B virus) [nM],CC50 at 72 h [1] [nM],EC50 [2] [nM],CC50 at 120 h [3] [nM]
CC(C)OC(=O)[C@H](C)NP(=O)(CO[C@H](C)Cn1cnc2c(N)ncnc21)Oc1ccc(C[C@@H](C(=O)OC2CCCC2)N(CCCc2ccccc2)Cc2ccccc2)cc1 (stereo partly specified),1.2,> 50000,–,–
COC(=O)[C@H](Cc1ccc(O[P@](=O)(CO[C@H](C)Cn2cnc3c(N)ncnc32)N[C@@H](C)C(=O)OC(C)C)cc1)N(C)C,–,–,2500,> 50000
CC(C)OC(=O)[C@H](C)N[P@@](=O)(CO[C@H](C)Cn1cnc2c(N)ncnc21)Oc1ccc(C[C@H](NC(=O)OCc2ccccc2)C(=O)OC(C)C)cc1,–,–,27,13000
CC(C)OC(=O)[C@H](C)NP(=O)(CO[C@H](C)Cn1cnc2c(N)ncnc21)Oc1ccc(C[C@H](NC(=O)OCc2ccccc2)C(=O)OCc2cccs2)cc1 (stereo partly specified),–,–,3.4,8200
CCCCCCOC(=O)[C@H](Cc1ccc(O[P@](=O)(CO[C@H](C)Cn2cnc3c(N)ncnc32)N[C@@H](C)C(=O)OC(C)C)cc1)NC(=O)OCc1ccccc1,–,–,23,17000
CC(C)OC(=O)[C@H](C)N[P@](=O)(CO[C@H](C)Cn1cnc2c(N)ncnc21)Oc1ccc(C[C@@H](NC(=O)OCc2ccccc2)C(=O)OC2CCCC2)cc1,–,–,0.67,20000
CC(C)OC(=O)[C@H](C)NP(=O)(CO[C@H](C)Cn1cnc2c(N)ncnc21)Oc1ccc(C[C@H](NC(=O)OCc2ccccc2)C(=O)OCc2ccccc2)cc1 (stereo partly specified),–,–,9,10000
CC(C)OC(=O)[C@H](C)N[P@@](=O)(CO[C@H](C)Cn1cnc2c(N)ncnc21)Oc1ccc(C[C@H](NC(=O)OCc2ccccc2)C(=O)OC2CCCCC2)cc1,–,–,21,14000
CC(C)OC(=O)[C@H](C)N[P@](=O)(CO[C@H](C)Cn1cnc2c(N)ncnc21)Oc1ccc(C[C@H](NC(=O)OCc2ccccc2)C(=O)OC2CCCCC2)cc1,–,–,8.4,9100
CC(C)OC(=O)[C@H](C)NP(=O)(CO[C@H](C)Cn1cnc2c(N)ncnc21)Oc1ccc(C[C@H](NC(=O)OCc2ccccc2)C(=O)OC2CCCC2)cc1 (stereo partly specified),0.7,> 50000,0.9,8300
COC(=O)[C@H](Cc1ccc(O[P@@](=O)(CO[C@H](C)Cn2cnc3c(N)ncnc32)N[C@@H](C)C(=O)OC(C)C)cc1)NC(=O)OCc1ccccc1,–,–,16,16000
COC(=O)[C@H](Cc1ccc(O[P@](=O)(CO[C@H](C)Cn2cnc3c(N)ncnc32)N[C@@H](C)C(=O)OC(C)C)cc1)NC(=O)c1ccccc1,–,–,72,> 50000
CCCCCCCCOC(=O)[C@H](Cc1ccc(OP(=O)(CO[C@H](C)Cn2cnc3c(N)ncnc32)N[C@@H](C)C(=O)OC(C)C)cc1)NC(=O)OCc1ccccc1 (stereo partly specified),–,–,38,27000
COC(=O)[C@H](Cc1ccc(O[P@@](=O)(CO[C@H](C)Cn2cnc3c(N)ncnc32)N[C@@H](C)C(=O)OC(C)C)cc1)NC(=O)c1ccccc1,–,–,84,> 50000
COCCOCCOCCOC(=O)[C@H](Cc1ccc(OP(=O)(CO[C@H](C)Cn2cnc3c(N)ncnc32)N[C@@H](C)C(=O)OC(C)C)cc1)NC(=O)OCc1ccccc1 (stereo partly specified),–,–,470,> 50000
CCCCCCOC(=O)[C@H](Cc1ccc(O[P@@](=O)(CO[C@H](C)Cn2cnc3c(N)ncnc32)N[C@@H](C)C(=O)OC(C)C)cc1)NC(=O)OCc1ccccc1,–,–,16,13000
CC(C)OC(=O)[C@H](C)NP(=O)(CO[C@H](C)Cn1cnc2c(N)ncnc21)Oc1ccc(C[C@H](NC(=O)OCc2ccccc2)C(=O)OC(C)C)cc1 (stereo partly specified),4.2,> 50000,1.6,9400

SMILES,EC50 (Hepatitis B virus) [nM],CC50 at 72 h [1] [nM],EC50 [2] [nM],CC50 at 120 h [3] [nM]
CC(C)OC(=O)[C@H](C)NP(=O)(CO[C@H](C)Cn1cnc2c(N)ncnc21)Oc1ccc(C[C@@H](C(=O)CC2CCCC2)N(CCCc2ccccc2)Cc2ccccc2)cc1 (stereo partly specified),1.3,46000,–,–
COC(=O)[C@H](Cc1ccc(O[P@](=O)(CO[C@H](C)Cn2cnc3c(N)ncnc32)N[C@@H](C)C(=O)OC(C)C)cc1)N1CCCC1,–,–,11,24000
COC(=O)[C@H](Cc1ccc(O[P@](=O)(CO[C@H](C)Cn2cnc3c(N)ncnc32)N[C@@H](C)C(=O)OC(C)C)cc1)NC(=O)OCc1ccccc1,–,–,30,8500
CC(C)CCOC(=O)[C@H](Cc1ccc(OP(=O)(CO[C@H](C)Cn2cnc3c(N)ncnc32)N[C@@H](C)C(=O)OC(C)C)cc1)NC(=O)OCc1ccccc1 (stereo partly specified),0.2,> 50000,0.4,8400
CCOC(=O)[C@H](Cc1ccc(OP(=O)(CO[C@H](C)Cn2cnc3c(N)ncnc32)N[C@@H](C)C(=O)OC(C)C)cc1)NC(=O)OCc1ccccc1 (stereo partly specified),3.6,> 50000,17,11000
CCC(CC)COC(=O)[C@H](Cc1ccc(O[P@](=O)(CO[C@H](C)Cn2cnc3c(N)ncnc32)N[C@@H](C)C(=O)OC(C)C)cc1)NC(=O)OCc1ccccc1,–,–,36,38000
CCOC(=O)[C@H](Cc1ccc(O[P@@](=O)(CO[C@H](C)Cn2cnc3c(N)ncnc32)N[C@@H](C)C(=O)OC(C)C)cc1)NC(=O)OCc1ccccc1,–,–,3.3,11000
CCC(CC)COC(=O)[C@H](Cc1ccc(O[P@@](=O)(CO[C@H](C)Cn2cnc3c(N)ncnc32)N[C@@H](C)C(=O)OC(C)C)cc1)NC(=O)OCc1ccccc1,–,–,50,38000
COC(=O)[C@@H](N)Cc1ccc(O[P@@](=O)(CO[C@H](C)Cn2cnc3c(N)ncnc32)N[C@@H](C)C(=O)OC(C)C)cc1,–,–,350,> 50000
COC(=O)[C@H](Cc1ccc(O[P@@](=O)(CO[C@H](C)Cn2cnc3c(N)ncnc32)N[C@@H](C)C(=O)OC(C)C)cc1)N(C)C,–,–,48,38000
COC(=O)[C@H](Cc1ccc(OP(=O)(CO[C@H](C)Cn2cnc3c(N)ncnc32)N[C@@H](C)C(=O)OC(C)C)cc1)NC(=O)OCc1ccccc1 (stereo partly specified),0.6,15000,–,–
CC(C)OC(=O)[C@H](C)N[P@@](=O)(CO[C@H](C)Cn1cnc2c(N)ncnc21)Oc1ccc(C[C@H](NC(=O)OCc2ccccc2)C(=O)NC2CCCC2)cc1,–,–,10,17000
CC(C)OC(=O)[C@H](C)NP(=O)(CO[C@H](C)Cn1cnc2c(N)ncnc21)Oc1ccc(C[C@H](NC(=O)OCc2ccccc2)C(=O)OC(C)(C)C)cc1 (stereo partly specified),–,–,13,6600
CC(C)CCOC(=O)[C@H](Cc1ccc(O[P@](=O)(CO[C@H](C)Cn2cnc3c(N)ncnc32)N[C@@H](C)C(=O)OC(C)C)cc1)NC(=O)OCc1ccccc1,–,–,11,24000
COC(=O)[C@@H](N)Cc1ccc(O[P@](=O)(CO[C@H](C)Cn2cnc3c(N)ncnc32)N[C@@H](C)C(=O)OC(C)C)cc1,–,–,650,> 50000
CCOC(=O)[C@H](Cc1ccc(O[P@](=O)(CO[C@H](C)Cn2cnc3c(N)ncnc32)N[C@@H](C)C(=O)OC(C)C)cc1)NC(=O)OCc1ccccc1,–,–,20,13000
COC(=O)[C@H](Cc1ccc(O[P@@](=O)(CO[C@H](C)Cn2cnc3c(N)ncnc32)N[C@@H](C)C(=O)OC(C)C)cc1)N1CCCC1,–,–,16,27000
